Laboratory results: the supplement of paper PMC10733146

Columns and labels:
Assay in all cases: viability relative to DMSO control (fraction); higher = less drug effect (more viable cells)
Conditions in all cases: 48 h
[1] = compound: CC(C)N(CCCNC(=O)Nc1ccc(C(C)(C)C)cc1)C[C@H]1O[C@@H](n2cc(Br)c3c(N)ncnc32)[C@H](O)[C@@H]1O [SGC 0946]
Outline: (§1)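 Using 384-well plates with compounds already plated at five concentrations, one well per concentration, 4 × 10^4 primary mononuclear tumour cells were added per well. Cells were Ficoll-isolated from blood or bone marrow or came from processed lymph node, fresh or cryopreserved. They were kept for 48 h at 37 °C and 5% CO2 in RPMI-1640 supplemented with penicillin/streptomycin, L-glutamine and human serum, and viability was read as CellTiter-Glo luminescence relative to the median of 16 inner DMSO wells.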

[2] = compound: CC[C@H](CO)Nc1nc(NCc2ccccc2)c2ncn(C(C)C)c2n1 [Roscovitine]
Outline: as §1

[3] = compound: CC[C@]1(O)C[C@@H]2CN(CCc3c([nH]c4ccccc34)[C@@](C(=O)OC)(c3cc4c(cc3OC)N(C)[C@H]3[C@@](O)(C(N)=O)[C@H](O)[C@]5(CC)C=CCN6CC[C@]43[C@@H]65)C2)C1 [Vindesine]
Outline: as §1

[4] = compound: CO[C@@H]1[C@H](N(C)C(=O)c2ccccc2)C[C@H]2O[C@]1(C)n1c3ccccc3c3c4c(c5c6ccccc6n2c5c31)C(=O)NC4 [Midostaurin hydrate]
Outline: as §1

[5] = compound: CO[C@H]1C[C@@H]2CC[C@@H](C)[C@@](O)(O2)C(=O)C(=O)N2CCCC[C@H]2C(=O)O[C@H]([C@H](C)C[C@@H]2CC[C@@H](OCCO)[C@H](OC)C2)CC(=O)[C@H](C)/C=C(\C)[C@@H](O)[C@@H](OC)C(=O)[C@H](C)C[C@H](C)/C=C/C=C/C=C/1C [Everolimus]
Outline: as §1

[6] = compound: COc1cc(C(=O)O)ccc1NC(=O)[C@@H]1N[C@@H](CC(C)(C)C)[C@](C#N)(c2ccc(Cl)cc2F)[C@H]1c1cccc(Cl)c1F [Idasanutlin (RS7388)]
Outline: as §1

[7] = compound: COc1cc([C@@H]2c3cc4c(cc3[C@@H](O[C@@H]3O[C@@H]5CO[C@@H](C)O[C@H]5[C@H](O)[C@H]3O)[C@H]3COC(=O)[C@H]23)OCO4)cc(OC)c1O [Etoposide]
Outline: as §1

[8] = compound: C[C@@H]1CCN(C(=O)CC#N)C[C@@H]1N(C)c1ncnc2[nH]ccc12 [Tofacitinib]
Outline: as §1

[9] = compound: C[C@H](Nc1ncnc2nc[nH]c12)c1cc2cccc(Cl)c2c(=O)n1-c1ccccc1 [Duvelisib]
Outline: as §1

[10] = compound: Cn1c(CCCC(=O)O)nc2cc(N(CCCl)CCCl)ccc21 [Bendamustine]
Outline: as §1

[11] = compound: Nc1cccc2c1C(=O)N(C1CCC(=O)NC1=O)C2=O [Pomalidomide]
Outline: as §1

[12] = compound: O=C(Nc1ccc2[nH]nc(-c3ccncc3)c2c1)[C@@H]1CCN(CC(=O)N2CCN(c3ccc(-c4ncccn4)cc3)CC2)C1
Outline: as §1

[13] = compound: O=C(O)CCCc1ccc(N(CCCl)CCCl)cc1 [Chlorambucil]
Outline: as §1

[14] = compound: c1cn2cc(-c3ccc4cn[nH]c4c3)nc(Nc3ccc(N4CCOCC4)cc3)c2n1 [Entospletinib]
Outline: as §1

primary FL patient cells (S087)
viability ([1]; 0.024 µM): 1.02 | viability ([1]; 0.12 µM): 0.957 | viability ([1]; 0.6 µM): 0.923 | viability ([1]; 3 µM): 0.967 | viability ([1]; 15 µM): 0.645 | viability ([2]; 0.032 µM): 0.924 | viability ([2]; 0.16 µM): 0.905 | viability ([2]; 0.8 µM): 0.916 | viability ([2]; 4 µM): 0.9 | viability ([2]; 20 µM): 0.798 | viability ([3]; 0.016 µM): 0.87 | viability ([3]; 0.08 µM): 0.836 | viability ([3]; 0.4 µM): 0.728 | viability ([3]; 2 µM): 0.737 | viability ([3]; 10 µM): 0.637 | viability ([4]; 0.024 µM): 0.997 | viability ([4]; 0.12 µM): 1.01 | viability ([4]; 0.6 µM): 1.04 | viability ([4]; 3 µM): 0.928 | viability ([4]; 15 µM): 0.795 | viability ([5]; 0.0032 µM): 0.882 | viability ([5]; 0.016 µM): 0.851 | viability ([5]; 0.08 µM): 0.859 | viability ([5]; 0.4 µM): 0.846 | viability ([5]; 2 µM): 0.867 | viability ([6]; 0.032 µM): 0.834 | viability ([6]; 0.16 µM): 0.877 | viability ([6]; 0.8 µM): 0.803 | viability ([6]; 4 µM): 0.694 | viability ([6]; 20 µM): 0.671 | viability ([7]; 0.032 µM): 1.02 | viability ([7]; 0.16 µM): 0.974 | viability ([7]; 0.8 µM): 0.916 | viability ([7]; 4 µM): 0.981 | viability ([7]; 20 µM): 0.765 | viability ([8]; 0.024 µM): 0.972 | viability ([8]; 0.12 µM): 0.945 | viability ([8]; 0.6 µM): 0.978 | viability ([8]; 3 µM): 0.969 | viability ([8]; 15 µM): 1 | viability ([9]; 0.0016 µM): 0.849 | viability ([9]; 0.008 µM): 0.811 | viability ([9]; 0.04 µM): 0.764 | viability ([9]; 0.2 µM): 0.758 | viability ([9]; 1 µM): 0.795 | viability ([10]; 0.032 µM): 1.01 | viability ([10]; 0.16 µM): 1 | viability ([10]; 0.8 µM): 0.984 | viability ([10]; 4 µM): 0.99 | viability ([10]; 20 µM): 0.786 | viability ([11]; 0.0032 µM): 0.992 | viability ([11]; 0.016 µM): 1.02 | viability ([11]; 0.08 µM): 1.09 | viability ([11]; 0.4 µM): 0.995 | viability ([11]; 2 µM): 0.994 | viability ([12]; 0.008 µM): 0.961 | viability ([12]; 0.04 µM): 0.903 | viability ([12]; 0.2 µM): 0.943 | viability ([12]; 1 µM): 0.886 | viability ([12]; 5 µM): 0.851 | viability ([13]; 0.032 µM): 0.991 | viability ([13]; 0.16 µM): 0.961 | viability ([13]; 0.8 µM): 0.955 | viability ([13]; 4 µM): 0.925 | viability ([13]; 20 µM): 0.706 | viability ([14]; 0.024 µM): 1.09 | viability ([14]; 0.12 µM): 1.01 | viability ([14]; 0.6 µM): 1.04 | viability ([14]; 3 µM): 1.06 | viability ([14]; 15 µM): 1.02

primary CLL patient cells (S031)
viability ([1]; 0.024 µM): 0.922 | viability ([1]; 0.12 µM): 0.942 | viability ([1]; 0.6 µM): 0.848 | viability ([1]; 3 µM): 0.793 | viability ([1]; 15 µM): 0.355 | viability ([2]; 0.032 µM): 0.81 | viability ([2]; 0.16 µM): 0.872 | viability ([2]; 0.8 µM): 0.921 | viability ([2]; 4 µM): 0.734 | viability ([2]; 20 µM): 0.455 | viability ([3]; 0.016 µM): 0.447 | viability ([3]; 0.08 µM): 0.269 | viability ([3]; 0.4 µM): 0.17 | viability ([3]; 2 µM): 0.151 | viability ([3]; 10 µM): 0.0709 | viability ([4]; 0.024 µM): 1.07 | viability ([4]; 0.12 µM): 1.04 | viability ([4]; 0.6 µM): 0.904 | viability ([4]; 3 µM): 0.452 | viability ([4]; 15 µM): 0.171 | viability ([5]; 0.0032 µM): 0.81 | viability ([5]; 0.016 µM): 0.827 | viability ([5]; 0.08 µM): 0.808 | viability ([5]; 0.4 µM): 0.879 | viability ([5]; 2 µM): 0.894 | viability ([6]; 0.032 µM): 0.623 | viability ([6]; 0.16 µM): 0.53 | viability ([6]; 0.8 µM): 0.244 | viability ([6]; 4 µM): 0.0778 | viability ([6]; 20 µM): 0.0346 | viability ([7]; 0.032 µM): 1.03 | viability ([7]; 0.16 µM): 0.996 | viability ([7]; 0.8 µM): 0.858 | viability ([7]; 4 µM): 0.728 | viability ([7]; 20 µM): 0.329 | viability ([8]; 0.024 µM): 0.904 | viability ([8]; 0.12 µM): 0.88 | viability ([8]; 0.6 µM): 0.858 | viability ([8]; 3 µM): 0.938 | viability ([8]; 15 µM): 0.791 | viability ([9]; 0.0016 µM): 0.735 | viability ([9]; 0.008 µM): 0.681 | viability ([9]; 0.04 µM): 0.561 | viability ([9]; 0.2 µM): 0.587 | viability ([9]; 1 µM): 0.475 | viability ([10]; 0.032 µM): 1.15 | viability ([10]; 0.16 µM): 1.07 | viability ([10]; 0.8 µM): 1.1 | viability ([10]; 4 µM): 0.991 | viability ([10]; 20 µM): 0.392 | viability ([11]; 0.0032 µM): 0.987 | viability ([11]; 0.016 µM): 1.24 | viability ([11]; 0.08 µM): 1.27 | viability ([11]; 0.4 µM): 1.33 | viability ([11]; 2 µM): 1.48 | viability ([12]; 0.008 µM): 0.782 | viability ([12]; 0.04 µM): 0.686 | viability ([12]; 0.2 µM): 0.469 | viability ([12]; 1 µM): 0.307 | viability ([12]; 5 µM): 0.269 | viability ([13]; 0.032 µM): 0.957 | viability ([13]; 0.16 µM): 0.875 | viability ([13]; 0.8 µM): 0.965 | viability ([13]; 4 µM): 0.661 | viability ([13]; 20 µM): 0.102 | viability ([14]; 0.024 µM): 1.09 | viability ([14]; 0.12 µM): 0.937 | viability ([14]; 0.6 µM): 1.04 | viability ([14]; 3 µM): 0.958 | viability ([14]; 15 µM): 0.934
